What was measured:
[1] = test system: 786-0; experiment: NCI-60 one-dose assay; type: cell-based; settings: Homo sapiens, 786-0 (Renal Cancer), read-out: Cell Inhibition Percent
[2] = test system: DU-145; experiment: NCI-60 one-dose assay; type: cell-based; settings: Homo sapiens, DU-145 (Prostate Cancer), read-out: Cell Inhibition Percent
[3] = test system: EKVX; experiment: NCI-60 one-dose assay; type: cell-based; settings: Homo sapiens, EKVX (Non-Small Cell Lung Cancer), read-out: Cell Inhibition Percent
[4] = test system: HCT-116; experiment: NCI-60 one-dose assay; type: cell-based; settings: Homo sapiens, HCT-116 (Colon Cancer), read-out: Cell Inhibition Percent
[5] = test system: HL-60(TB); experiment: NCI-60 one-dose assay; type: cell-based; settings: Homo sapiens, HL-60(TB) (Leukemia), read-out: Cell Inhibition Percent
[6] = test system: HOP-62; experiment: NCI-60 one-dose assay; type: cell-based; settings: Homo sapiens, HOP-62 (Non-Small Cell Lung Cancer), read-out: Cell Inhibition Percent
[7] = test system: HOP-92; experiment: NCI-60 one-dose assay; type: cell-based; settings: Homo sapiens, HOP-92 (Non-Small Cell Lung Cancer), read-out: Cell Inhibition Percent
[8] = test system: IGROV1; experiment: NCI-60 one-dose assay; type: cell-based; settings: Homo sapiens, IGROV-1, IGROV1 (ovarian cancer), read-out: Cell Inhibition Percent
[9] = test system: M14; experiment: NCI-60 one-dose assay; type: cell-based; settings: Homo sapiens, M14 (Melanoma), read-out: Cell Inhibition Percent
[10] = test system: MALME-3M; experiment: NCI-60 one-dose assay; type: cell-based; settings: Homo sapiens, MALME-3M (Melanoma), read-out: Cell Inhibition Percent
[11] = test system: MCF7; experiment: NCI-60 one-dose assay; type: cell-based; settings: Homo sapiens, MCF7 (Breast Cancer), read-out: Cell Inhibition Percent
[12] = test system: MDA-MB 231; experiment: NCI-60 one-dose assay; type: cell-based; settings: Homo sapiens, MDA-MB 231 (Breast Cancer), read-out: Cell Inhibition Percent
[13] = test system: MDA-MB-435; experiment: NCI-60 one-dose assay; type: cell-based; settings: Homo sapiens, MDA-MB-435 (Melanoma), read-out: Cell Inhibition Percent
[14] = test system: MOLT-4; experiment: NCI-60 one-dose assay; type: cell-based; settings: Homo sapiens, MOLT-4 (Leukemia), read-out: Cell Inhibition Percent
[15] = test system: NCI-H460; experiment: NCI-60 one-dose assay; type: cell-based; settings: Homo sapiens, NCI-H460 (Non-Small Cell Lung Cancer), read-out: Cell Inhibition Percent
[16] = test system: NCI-H522; experiment: NCI-60 one-dose assay; type: cell-based; settings: Homo sapiens, NCI-H522 (Non-Small Cell Lung Cancer), read-out: Cell Inhibition Percent
[17] = test system: NCI/ADR-RES; experiment: NCI-60 one-dose assay; type: cell-based; settings: Homo sapiens, NCI/ADR-RES (ovarian cancer), read-out: Cell Inhibition Percent
[18] = test system: OVCAR-5; experiment: NCI-60 one-dose assay; type: cell-based; settings: Homo sapiens, OVCAR-5 (ovarian cancer), read-out: Cell Inhibition Percent
[19] = test system: PC-3; experiment: NCI-60 one-dose assay; type: cell-based; settings: Homo sapiens, PC-3 (Prostate Cancer), read-out: Cell Inhibition Percent
[20] = test system: RPMI-8226; experiment: NCI-60 one-dose assay; type: cell-based; settings: Homo sapiens, RPMI-8226 (Leukemia), read-out: Cell Inhibition Percent
[21] = test system: RXF 393; experiment: NCI-60 one-dose assay; type: cell-based; settings: Homo sapiens, RXF 393 (Renal Cancer), read-out: Cell Inhibition Percent
[22] = test system: SF-268; experiment: NCI-60 one-dose assay; type: cell-based; settings: Homo sapiens, SF-268 (CNS cancer), read-out: Cell Inhibition Percent
[23] = test system: SF-539; experiment: NCI-60 one-dose assay; type: cell-based; settings: Homo sapiens, SF-539 (CNS cancer), read-out: Cell Inhibition Percent
[24] = test system: SK-MEL-28; experiment: NCI-60 one-dose assay; type: cell-based; settings: Homo sapiens, SK-MEL-28 (Melanoma), read-out: Cell Inhibition Percent
[25] = test system: SK-MEL-2; experiment: NCI-60 one-dose assay; type: cell-based; settings: Homo sapiens, SK-MEL-2 (Melanoma), read-out: Cell Inhibition Percent
[26] = test system: SR; experiment: NCI-60 one-dose assay; type: cell-based; settings: Homo sapiens, SR (Leukemia), read-out: Cell Inhibition Percent
[27] = test system: SW-620; experiment: NCI-60 one-dose assay; type: cell-based; settings: Homo sapiens, SW-620 (Colon Cancer), read-out: Cell Inhibition Percent
[28] = test system: U251; experiment: NCI-60 one-dose assay; type: cell-based; settings: Homo sapiens, U-251, U251 (CNS cancer), read-out: Cell Inhibition Percent
[29] = test system: UACC-257; experiment: NCI-60 one-dose assay; type: cell-based; settings: Homo sapiens, UACC-257 (Melanoma), read-out: Cell Inhibition Percent
[30] = test system: MDA-MB-231; experiment: NCI-60 five-dose assay; type: cell-based, human; settings: MDA-MB-231 (Breast Cancer), 48 h

SMILES | inhibition at 10 µM [1] [%] | inhibition at 10 µM [2] [%] | inhibition at 10 µM [3] [%] | inhibition at 10 µM [4] [%] | inhibition at 10 µM [5] [%] | inhibition at 10 µM [6] [%] | inhibition at 10 µM [7] [%] | inhibition at 10 µM [8] [%] | inhibition at 10 µM [9] [%] | inhibition at 10 µM [10] [%] | inhibition at 10 µM [11] [%] | inhibition at 10 µM [12] [%] | inhibition at 10 µM [13] [%] | inhibition at 10 µM [14] [%] | inhibition at 10 µM [15] [%] | inhibition at 10 µM [16] [%] | inhibition at 10 µM [17] [%] | inhibition at 10 µM [18] [%] | inhibition at 10 µM [19] [%] | inhibition at 10 µM [20] [%] | further results
CN(C)c1ccc(C=NNC(=O)c2ccc3[nH]c(-c4ccc(Cl)cc4)nc3c2)cc1 [Compound 4b, N′-(4-(Dimethylamino)benzylidene)-2-(4-chlorophenyl)-1H-benzimidazole-5-carbohydrazide] | 0 | 0 | 2.85 | 4.7 | 0 | 2.51 | 0 | 15 | 3.58 | 12.9 | 23.8 | 15.6 | 0 | 3.18 | 2.77 | 3.02 | 0.43 | 0 | 4.81 | 5.27 | inhibition at 10 µM [21]: 7.79%; inhibition at 10 µM [22]: 0.73%; inhibition at 10 µM [23]: 5.22%; inhibition at 10 µM [24]: 0%; inhibition at 10 µM [25]: 0%; inhibition at 10 µM [26]: 2.54%; inhibition at 10 µM [27]: 0%; inhibition at 10 µM [28]: 0%; inhibition at 10 µM [29]: 0%; melting point: 283 to 285 °C
O=C(NN=Cc1ccc(Cl)cc1Cl)c1ccc2[nH]c(-c3ccc(Cl)cc3)nc2c1 [Compound 4f, N′-(2,4-Dichlorobenzylidene)-2-(4-chlorophenyl)-1H-benzimidazole-5-carbohydrazide] | 0 | 0 | 13.7 | 8.63 | 5.98 | 5.89 | 0 | 31 | 17.1 | 9.55 | 13.4 | 11.4 | 0 | 72.6 | 1.37 | 7.79 | 0 | 0 | 7.03 | 15.4 | inhibition at 10 µM [21]: 12.5%; inhibition at 10 µM [22]: 3.63%; inhibition at 10 µM [23]: 5.73%; inhibition at 10 µM [24]: 0%; inhibition at 10 µM [25]: 2.9%; inhibition at 10 µM [26]: 54.6%; inhibition at 10 µM [27]: 4.3%; inhibition at 10 µM [28]: 41%; inhibition at 10 µM [29]: 6.59%; melting point: 294 to 297 °C
CCn1c(-c2ccc3[nH]c(-c4ccc(Cl)cc4)nc3c2)n[nH]c1=S [Compound 6, 4-ethyl-5-(2-(4-chlorophenyl)-1H-benzimidazol-5-yl)-2,4-dihydro-3H-1,2,4triazole-3-thione] | 0 | 0 | 0.44 | 0 | 0 | 1.71 | 0.32 | 0.16 | 0 | 2.41 | 14.6 | 2.36 | 0 | 2.85 | 0 | 1.85 | 0 | 0 | 7.76 | 0.68 | inhibition at 10 µM [21]: 13.9%; inhibition at 10 µM [22]: 1.04%; inhibition at 10 µM [23]: 3.69%; inhibition at 10 µM [24]: 0%; inhibition at 10 µM [25]: 0%; inhibition at 10 µM [26]: 17.5%; inhibition at 10 µM [27]: 0%; inhibition at 10 µM [28]: 0%; inhibition at 10 µM [29]: 0%; melting point: 292 to 294 °C
O=C(NN=Cc1ccc(F)cc1)c1ccc2[nH]c(-c3ccc(Cl)cc3)nc2c1 [Compound 4d, N′-(4-Fluorobenzylidene)-2-(4-chlorophenyl)-1H-benzimidazole-5-carbohydrazide] | 87.8 | 14.6 | 26.8 | 51.4 | 62.6 | 39.5 | 15.4 | 59.8 | 39.8 | 88.2 | 82.6 | 36.1 | 6.12 | 76.5 | 63.8 | 3.87 | 23 | 10.8 | 53.2 | 32.5 | inhibition at 10 µM [21]: 22.6%; inhibition at 10 µM [22]: 21.8%; inhibition at 10 µM [23]: 12%; inhibition at 10 µM [24]: 28.1%; inhibition at 10 µM [25]: 16.7%; inhibition at 10 µM [26]: 79.3%; inhibition at 10 µM [27]: 53.7%; inhibition at 10 µM [28]: 98.4%; inhibition at 10 µM [29]: 0%; melting point: 285 to 287 °C
O=C(NN=Cc1ccc(Cl)cc1)c1ccc2[nH]c(-c3ccc(Cl)cc3)nc2c1 [Compound 4e, N′-(4-Chlorobenzylidene)-2-(4-chlorophenyl)-1H-benzimidazole-5-carbohydrazide] | 142 | 69.5 | 91.8 | 102 | 94.2 | 92 | 71.9 | 127 | 80.3 | 159 | 120 | 90.5 | 61.2 | 95.5 | 134 | 36.8 | 58.8 | 76.3 | 125 | 97.2 | inhibition at 10 µM [21]: 81.1%; inhibition at 10 µM [22]: 62%; inhibition at 10 µM [23]: 62.9%; inhibition at 10 µM [24]: 109%; inhibition at 10 µM [25]: 61.1%; inhibition at 10 µM [26]: 124%; inhibition at 10 µM [27]: 128%; inhibition at 10 µM [28]: 115%; inhibition at 10 µM [29]: 68.3%; GI50 ([30]; Homo sapiens, read-out: GI50 Conc. per Cell Line): 1850 nM; CC50 ([30]; Homo sapiens, read-out: LC50 (the source's name)): 7.67 µM; TGI [30]: 3.77 µM
